Measurements taken from patent US7989478B2, “Cinnamoyl compound and use of the same” (Sumitomo Chemical Company, Limited, priority 2003, dated 2011).

How the values were obtained:
[1] = tested on: mRNA of Type I collagen gene in renal glomerulus; test: mRNA of Type I collagen gene in renal glomerulus of anti-Thy-1 antibody-administered rats (improvement of chronic renal failure); type: in vivo, rat; conditions: for ability to improve chronic renal failure: anti-Thy-1 antibody rats; for mRNA of collagen gene: Type I collagen amount/GAPDH amount, renal cortex, anti-Thy-1 antibody +
Experimental: IgG was purified from an ascites-lyophilized powder (CEDARLANE, lot No. 05122) containing an anti-rat CD90 (Thy1.1) monoclonal antibody using MAbTrap kit (Amersham Biosciences, catalogue No. 17-1128-01).
6 ml of a binding buffer was added to 3 ml of ascites to sufficiently recover it, and this was passed through a 0.22 μm filter. The resulting solution was applied to a pre-bufferized column, and the column was then washed with 10 ml of a binding buffer. Thereafter, the column was eluted with 5 ml of an elution buffer. From washing, each 1 ml was fractionated, and the protein concentration of each fraction was measured using bovine serum albumin as a standard. A single peak was confirmed from an elution pattern, and an IgG fraction was dialyzed against a physiological saline overnight at 4° C. The protein concentration of the resulting anti-Thy-1 antibody (IgG) was calculated.
The present compounds represented by the compound numbers (28a) (hereinafter, referred to as the present compound (28a)), the present compound represented by a compound number (30a) (hereinafter, referred to as the present compound (30a)), the present compound represented by a compound number (33a) (hereinafter, referred to as the present compound (33a)), the present compound represented by a compound number (10e) (hereinafter, referred to as the present compound (10e)), the present compound represented by a compound number (18e) (hereinafter referred to as the present compound (18e)), the present compound represented by a compound number (31e) (hereinafter, referred to as the present compound (31e)) and a corn oil which is a medium were weighed. These were mixed using a mortar and a pestle to prepare a […]. Using four 7-week old male Wistar rats [Nippon Charles River] per group, 60 μg/ml of the anti-Thy-1 antibody (IgG) or a physiological saline was intravenously injected via a tail vein at 5 ml/kg. […] A dose of the present compound was 15 mg/kg/day.
On the next day of final administration, a rat reared as described in the above (2) was slaughtered by collection of whole blood, and kidneys were isolated. A whole RNA was separated from the cortex of the isolated kidney using RNeasy Mini Kit (QIAGEN, catalogue No. 74106). To 5 μl (50 ng) of the separated whole RNA were added 1 μl of 20 μM oligo dT and 4 μl of RNase-free distilled water. After the mixture was incubated at 65° C. for 5 minutes, it was immediately ice-cooled. To 10 μl of the solution were added 4 μl of 5× buffer, 2.4 μl of MgCl2, 1 μl of 10 mM dNTP, 1 μl of RNasin, 1 μl of Improm II and 0.6 μl of RNase-free distilled water (all available from Promega), and a reverse transcription reaction was performed under the condition of at 25° C. for 5 minutes, at 42° C. for 1 hour, and at 70° C. for 15 minutes.
Into 5 μl of the reverse transcription reaction solution were mixed each 2 μl of each 1.25 pmol/μl of primers represented by SEQ ID NOS: 3 and 4, 1.25 μl of a probe (FAM-ctcgccttca tgcgcctgct agc-TAMRA) for detecting DNA of a Type I collagen gene represented by SEQ ID No:5, each 0.25 μl of Rodent GAPDH primers, 0.25 μl of a Rodent GAPDH probe, 12.5 μl of TaqMan Universal PCR Master Mix (all available from Applied Biosystem) and 1.5 μl of sterilized water in a well of Optical 96-Well Reaction Plate (Applied Biosystem, catalogue No. N801-0560). As a standard, in place of 5 μl of the reverse transcription reaction solution, each 5 μl of 500, 250, 125, 62.5, 31.25, 15.625 ng/μl rat renal cortex cDNA which had been prepared in advance was used. Thereafter, using Gene Amp 7900 (Applied Biosystem), PCR was performed under the condition of at 50° C. for 5 minutes, and 40 cycles in which one cycle is at 95° C. for 15 seconds and at 60° C. for 1 minute. […]

[2] = tested on: ability of TGF-β to promote transcription of a Type I collagen gene; test: Inhibition of the ability of TGF-β to promote transcription of a Type I collagen gene (COL-Luc reporter gene assay); type: cell-based; conditions: final concentration 1 μM; TGF-β added; normal human fetal skin fibroblast transfected with COL-Luc; 40 hours; read-out: Inhibition percentage
Experimental: 1×10^8 cells of a normal human fetal skin fibroblast (Clontech, catalogue No. CC-2509) were cultured at 37° C. overnight under 5% CO2 atmosphere. After the cultured cells were washed with a sodium phosphate buffer (hereinafter, referred to as PBS) twice, 3 ml of PBS was added thereto and the cells were scraped away the wall of a vessel using a cell scraper (Nalgen, catalogue No. 179693). The scraped cells were collected by centrifugation (1,500 rpm, 4° C., 15 min), and these were suspended in 20 ml of PBS and centrifuged again. To the resulting precipitates were added 11 ml of Solution 2 and 4.8 μl of pronase of DNA Extraction Kit (Stratagene, catalogue No. 200600). After shaken at 60° C. for 1 hour, the resulting mixture was allowed to stand in ice for 10 minutes. Then, 4 ml of Solution 3 of the kit was added to the mixture. After mixed, the mixture was allowed to stand in ice for 5 minutes and then centrifuged (3,000 rpm, 4° C., 15 min) to recover a supernatant. To the recovered supernatant was added 2 μl of RNase per 1 ml of the supernatant and the mixture was allowed to stand at 37° C. for 15 minutes. To the mixture was added 2-fold volume of ethanol. After mixed, a white thread-like substance (genomic DNA) appeared and the substance was recovered. The recovered genomic DNA was washed with 70% ethanol and then air-dried. The air-dried genomic DNA was dissolved in 500 μl of 10 mM Tris-HCl, 1 mM EDTA (pH 8.0) (hereinafter, referred to as TE).
The resulting genomic DNA solution (the amount equivalent to 1 μg of genomic DNA), each 1 μl (10 pmol/μl) of an oligonucleotide consisting of the nucleotide sequence represented by SEQ ID No:1 and an oligonucleotide consisting of the nucleotide sequence represented by SEQ ID No:2, 29 μL of distilled water, 5 μl of the buffer attached to TaKaRa LA Taq (TAKARA SHUZO, catalogue No. RR002A), 5 μL of a Mg^2+ solution, 5 μL of a dNTP mixture and 0.5 μl of TaKaRa LA Taq (TAKARA SHUZO, catalogue No. RR002A) were mixed. After the resulting mixed solution was incubated at 94° C. for 5 minutes, the mixed solution was subjected to 30 cycles, in which one cycle consists of incubation at 94° C. for 1 minute, at 60° C. for 1 minute and then at 72° C. for 1 minute. The mixed solution was electrophoresed on a 2% agarose gel to recover about 0.5 kb of a DNA. The recovered DNA was treated with phenol/chloroform and then precipitated with ethanol to recover the DNA. The resulting DNA was dissolved in ultrapure water. To this solution were added 2.5 μl of NheI and 2.5 μl of HindIII, and then incubated at 37° C. for 3 hours. Then, the solution was electrophoresed on a 2% agarose gel to recover about 3.5 kb of a DNA. The recovered DNA was precipitated with ethanol to recover again the DNA (hereinafter, referred to as the collagen promoter DNA).
On the other hand, the vector pGL3 (Promega, catalogue No. E1751) having the nucleotide sequence encoding firefly luciferase was digested with NheI and HindIII, and then subjected to agarose gel electrophoresis as described above to recover about 5 kb of a DNA. The recovered DNA was precipitated with ethanol to recover the DNA again. To the recovered DNA were added 44 μl of distilled water, 5 μl of Buffer attached to Alkaline Phosphatase (TAKARA SHUZO, catalogue No. 2120A) and 1 μl of Alkaline Phosphatase (TAKARA SHUZO, catalogue No. 2120A). The mixed solution was incubated at 65° C. for 30 minutes. Then, the mixed solution was treated with phenol/chloroform twice, and precipitated with ethanol to recover the DNA (hereinafter referred to as the Luc vector DNA). Then, after about 20 ng of the collagen promoter DNA and about 20 ng of the Luc vector DNA were mixed, the same amount of a DNA Ligation kit Ver2 enzyme solution was added and this was incubated overnight at 16° C. To the mixed solution was added Escherichia coli 5Hdα (TOYOBO, catalogue No. DNA-903), this was allowed to stand in ice for 30 minutes, and then incubated at 42° C. for 45 seconds. […]

[3] = Example 5, 15 mg/kg/day orally for 7 days in corn oil
[4] = Table 4, 15 mg/kg/day orally for 7 days in corn oil, Wistar rats, control group 5.6, normal group 1.7, test results p < 0.01
[5] = Table 3, 15 mg/kg/day orally for 7 days in corn oil, Wistar rats, control group 3.4, normal group 1.9, test results p < 0.05

Compound	ability to improve chronic renal failure [1, 3]	mRNA of collagen gene [1, 4]	inhibition at 1 µM [2]	ability to improve chronic renal failure ([1]; Example 6, orally for 7 days in 0.5% aqueous methylcellulose solution)	mRNA of collagen gene ([1]; Table 5 (Example 6), orally for 7 days in 0.5% aqueous methylcellulose solution, 10 Wistar rats per group, control group 2.1, normal group 1.0, test results p < 0.01)	mRNA of collagen gene [1, 5]
N#CCOc1cccc(C=CC(=O)c2c(O)c3ccccc3[nH]c2=O)c1 [Compound No. (10e), 4-hydroxy-3-[3-[3-(cyanomethoxy)phenyl]-1-oxo-2-propenyl]-2(1H)-quinolinone]	have the ability to improve chronic renal failure	2.0	≥ 70%	–	–	–
Cc1cc(O)c(C(=O)C=Cc2cccc(OCC(=O)O)c2)c(=O)n1C [Compound No. (37a), 4-hydroxy-3-[3-[3-(carboxymethoxy)phenyl]-1-oxo-2-propenyl]-1,6-dimethyl-2(1H)-pyridinone]	–	–	–	has the ability to improve chronic renal failure	1.5	–
COCC(=O)Nc1cccc(C=CC(=O)c2c(O)c3ccccc3[nH]c2=O)c1 [Compound No. (18e), 4-hydroxy-3-[3-[3-(methoxyacetylamino)phenyl]-1-oxo-2-propenyl]-2(1H)-quinolinone]	have the ability to improve chronic renal failure	1.9	≥ 70%	–	–	–
COCCNC(=O)c1ccc(C=CC(=O)c2c(O)c3ccccc3[nH]c2=O)cc1 [Compound No. (31e), 4-hydroxy-3-[3-[4-[(2-methoxyethyl)aminocarbonyl]phenyl]-1-oxo-2-propenyl]-2(1H)-quinolinone]	have the ability to improve chronic renal failure	3.3	≥ 70%	–	–	–
COC(=O)CNC(=O)c1ccc(C=CC(=O)c2c(O)cc(C)[nH]c2=O)cc1 [Compound No. (30a), 4-hydroxy-3-[3-[4-[[(methoxycarbonylmethyl)amino]carbonyl]phenyl]-1-oxo-2-propenyl]-6-methyl-2(1H)-pyridinone]	have the ability to improve chronic renal failure	–	–	–	–	2.4
COC(=O)CNC(=O)c1cccc(C=CC(=O)c2c(O)cc(C)[nH]c2=O)c1 [Compound No. (28a), 4-hydroxy-3-[3-[3-[[(methoxycarbonylmethyl)amino]carbonyl]phenyl]-1-oxo-2-propenyl]-6-methyl-2(1H)-pyridinone]	have the ability to improve chronic renal failure	–	≥ 70%	–	–	2.0
